Patent US20210038587A1, “METHODS AND COMPOSITIONS FOR TREATING NON-ERK MAPK PATHWAY INHIBITOR-RESISTANT CANCERS” (BIOMED VALLEY DISCOVERIES, INC., priority 2013, published 2021)
Values after ≈ are worked out from the molar mass of the structure shown. Marks after values point to notes of the source that are not given here.

What was measured:
[1] = tested on: PMA-stimulated RSK1 phosphorylation; experiment: Ex vivo inhibition of PMA-stimulated RSK1 phosphorylation in human whole blood; type: cell-based
A375 xenografts = experiment: Antitumor activity in A375 xenografts, monotherapy; type: in vivo, mice; conditions: 14 days
Description: For measurement of antitumor activity in A375 xenografts, xenografts were initiated with A375 cells maintained by serial subcutaneous transplantation in female athymic nude mice. Each test mouse received an A375 tumor fragment (1 mm^3) implanted subcutaneously in the right flank. Once tumors reached target size (80-120 mm^3), animals were randomized into treatment and control groups, and drug treatment was initiated.
Oral temozolomide was administered as a positive reference compound at 75 or 175 mg/kg once daily (QD) for a total of five treatments (QD×5).

RSK3 = RSK3 (Homo sapiens, UniProt Q15349); experiment: Kinase counter-screen, Ki; type: biochemical
From the text: (§1) The ATP concentrations were approximately equal to the Km in all assays.

Colo205 xenografts = experiment: BVD-523 activity in Colo205 xenografts
[2] = Phase I dose-escalation study: safety, DLT, MTD, RP2D; conditions: in vivo
From the text: Patients aged ≥18 years were eligible for participation if they had noncurable, histologically confirmed metastatic or advanced stage malignant tumors; an ECOG performance status of 0 or 1; adequate renal, hepatic, bone marrow, and cardiac function; and a life expectancy ≥3 months. Patients may have received up to 2 prior lines of chemotherapy for their metastatic disease. Exclusion criteria were known uncontrolled brain metastases; gastrointestinal conditions which could impair absorption of study medication; history or current evidence/risk of retinal vein occlusion or central serous retinopathy; and concurrent therapy with drugs known to be strong inhibitors of CYP1A2, CYP2D6, and CYP3A4 or strong inducers of CYP3A4. All participants provided informed consent prior to initiation of any study procedures.
The present invention presents data from an open-label, multicenter phase I study to assess the safety, pharmacokinetics, and pharmacodynamics of escalating doses of BVD-523 in patients with advanced malignancies.
Patients received BID oral doses until disease progression, unacceptable toxicity, or a clinical observation satisfying another withdrawal criterion. Dose escalations occurred in up to 100% increments in single-patient cohorts until 1 patient experienced a ≥Grade 2 toxicity (excluding alopecia or diarrhea). Cohorts were then expanded to at least 3 patients each and subsequent dose-escalation increments were reduced from up to 100% to a maximum of 50%. When at least 1 patient in a 3-patient cohort experienced a DLT, up to 3 additional patients were treated at this dose level. When more than 1 DLT occurred in ≤6 patients, this dose level was defined as the nontolerated dose and dose escalation was stopped. Intrapatient dose escalation was allowed, provided the patients receiving the highest current dose had been observed for at least 3 weeks and dose-limiting side effects were reported in fewer than 2 of 6 patients assigned to a given dose. Patients experiencing DLTs or unacceptable toxicity had their treatment interrupted until the toxicity returned to ≤Grade 1.
The RP2D could be as high as the MTD and was determined in discussion with the clinical investigators, the medical monitor, and the sponsor. Observations related to pharmacokinetics, pharmacodynamics, and any cumulative toxicity observed after multiple cycles were included in the rationale supporting the RP2D.
The severity of AEs were graded according to the National Cancer Institute Common Terminology Criteria for Adverse Events, Grading Scale, version 4.
Safety evaluations were conducted at baseline, on Days 8, 15, 22, 29, 36, and 43, and, in patients who continued treatment, every 3 weeks or if clinically indicated thereafter. Each evaluation included a physical examination and clinical laboratory studies. Electrocardiograms were repeated if clinically significant and at the discretion of the investigator. The investigators made judgments regarding whether or not AEs were related to study drug and followed up until resolution or stabilization, or the AE was judged to be no longer clinically significant.

CDK1/cyclinB = CDK1/cyclinB (Homo sapiens, UniProt P06493); experiment: Kinase counter-screen, Ki; type: biochemical; conditions: apparent Ki
From the text: as §1

ERK1 = ERK1 (Homo sapiens, UniProt P27361); experiment: biochemical
Description: The reaction was initiated by the addition of 65 μM of ATP. Decreased absorbance rate (340 nm) was monitored and the IC50 was determined as a function of inhibitor concentration.

[3] = tested on: ERK1/2 phosphorylation in Colo205 xenografts; experiment: pERK1/2 in Colo205 xenograft tumors (ITIS mass spectrometry, IHC); type: in vivo, mice; conditions: single 100 mg/kg oral dose
Description: For measurement of ERK1/2 Isotope-Tagged Internal Standard (ITIS) Mass Spectrometry in Colo205 Xenografts, frozen tumors were lysed in 10 volumes of ice cold lysis buffer (10 mM TRIS-HCl, pH 8.0, 10 mM MgCl2, 1% (v/v) Triton X-100, Complete™ Protease Inhibitor Cocktail [Roche, cat. No. 1836170], Phosphatase Inhibitor Cocktail I [Sigma, cat. No. P-2850], Phosphatase Inhibitor Cocktail II [Sigma cat. No. 5726], and benzonase [Novagen cat. No. 70664]). Lysates were clarified by centrifugation (100,000×g for 60 minutes at 4° C.) and the supernatants adjusted to 2 mg/mL with lysis buffer. ERK1 was immunoprecipitated using agarose-coupled and pan-anti-ERK1 (Santa Cruz Biotechnology cat. No. sc-93ac) antibodies. […]
For ITIS analysis, digested samples were spiked with heavy-atom labeled peptide standards and fractional phosphorylation was quantified by coupled liquid chromatography-tandem mass spectrometry (MS). […]
For analysis of pERK IHC in Colo205 xenografts, xenograft tumors were processed overnight in 70% through 100% graded ethanols, cleared in two changes of xylene, infiltrated with paraffin, and embedded into paraffin blocks. […] A single section from each animal and dose group was probed with anti-phospho p42/p44 MAPK antibody (pERK [1:100], CST; Cat no. 9101; Lot no. 16), counterstained with hematoxylin, and then analyzed microscopically using a Zeiss Axioplan 2 microscope. […]

ROCKII = ROCKII (Homo sapiens, UniProt O75116); experiment: Kinase counter-screen, Ki; type: biochemical; conditions: apparent Ki
ROCKII, sequence (O75116 whole entry, species assumed): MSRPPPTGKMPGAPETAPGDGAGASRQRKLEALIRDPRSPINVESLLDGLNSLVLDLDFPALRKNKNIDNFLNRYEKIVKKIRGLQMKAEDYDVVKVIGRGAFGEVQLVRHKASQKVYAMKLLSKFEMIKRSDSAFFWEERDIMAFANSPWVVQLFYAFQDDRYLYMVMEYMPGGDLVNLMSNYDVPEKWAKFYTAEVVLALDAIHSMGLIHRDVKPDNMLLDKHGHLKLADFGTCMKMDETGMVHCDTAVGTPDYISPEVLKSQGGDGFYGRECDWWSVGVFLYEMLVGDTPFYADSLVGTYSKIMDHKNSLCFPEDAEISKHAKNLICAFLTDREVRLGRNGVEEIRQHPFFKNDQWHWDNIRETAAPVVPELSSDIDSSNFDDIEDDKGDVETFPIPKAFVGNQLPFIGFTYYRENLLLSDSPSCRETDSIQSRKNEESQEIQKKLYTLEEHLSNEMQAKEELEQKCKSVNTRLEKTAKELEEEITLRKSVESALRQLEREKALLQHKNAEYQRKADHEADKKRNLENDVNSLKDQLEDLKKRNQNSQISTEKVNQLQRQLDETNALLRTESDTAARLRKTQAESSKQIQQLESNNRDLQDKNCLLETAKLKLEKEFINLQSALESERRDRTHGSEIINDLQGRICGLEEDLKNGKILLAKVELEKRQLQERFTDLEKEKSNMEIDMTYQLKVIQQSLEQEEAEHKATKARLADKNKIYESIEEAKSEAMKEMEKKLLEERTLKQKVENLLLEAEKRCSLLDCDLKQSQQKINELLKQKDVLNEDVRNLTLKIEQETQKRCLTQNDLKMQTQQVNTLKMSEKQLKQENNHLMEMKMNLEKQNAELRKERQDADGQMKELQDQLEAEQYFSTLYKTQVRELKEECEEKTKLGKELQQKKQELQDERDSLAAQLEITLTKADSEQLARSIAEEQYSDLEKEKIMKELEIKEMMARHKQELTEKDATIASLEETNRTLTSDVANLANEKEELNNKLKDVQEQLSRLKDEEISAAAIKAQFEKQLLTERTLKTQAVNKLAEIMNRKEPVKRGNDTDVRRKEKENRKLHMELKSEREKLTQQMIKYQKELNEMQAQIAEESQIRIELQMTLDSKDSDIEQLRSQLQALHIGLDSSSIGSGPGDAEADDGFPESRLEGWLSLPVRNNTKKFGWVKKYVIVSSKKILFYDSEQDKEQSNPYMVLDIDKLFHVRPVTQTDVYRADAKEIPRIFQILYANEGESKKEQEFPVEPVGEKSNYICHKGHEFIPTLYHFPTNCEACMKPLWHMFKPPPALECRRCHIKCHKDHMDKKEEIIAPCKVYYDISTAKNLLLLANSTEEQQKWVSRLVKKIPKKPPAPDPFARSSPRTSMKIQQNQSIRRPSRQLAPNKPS
From the text: as §1

ERK1, sequence (P27361 whole entry): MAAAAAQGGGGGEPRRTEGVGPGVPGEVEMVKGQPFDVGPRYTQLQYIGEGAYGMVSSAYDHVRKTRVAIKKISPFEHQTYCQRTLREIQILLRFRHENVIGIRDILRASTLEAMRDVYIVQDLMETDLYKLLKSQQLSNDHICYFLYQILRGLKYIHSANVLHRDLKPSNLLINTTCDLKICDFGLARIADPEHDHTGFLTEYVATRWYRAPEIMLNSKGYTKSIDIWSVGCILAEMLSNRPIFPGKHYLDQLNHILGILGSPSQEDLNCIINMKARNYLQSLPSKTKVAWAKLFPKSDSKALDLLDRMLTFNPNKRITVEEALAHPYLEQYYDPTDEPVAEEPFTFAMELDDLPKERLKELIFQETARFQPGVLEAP
RSK3, sequence (Q15349 whole entry, species assumed): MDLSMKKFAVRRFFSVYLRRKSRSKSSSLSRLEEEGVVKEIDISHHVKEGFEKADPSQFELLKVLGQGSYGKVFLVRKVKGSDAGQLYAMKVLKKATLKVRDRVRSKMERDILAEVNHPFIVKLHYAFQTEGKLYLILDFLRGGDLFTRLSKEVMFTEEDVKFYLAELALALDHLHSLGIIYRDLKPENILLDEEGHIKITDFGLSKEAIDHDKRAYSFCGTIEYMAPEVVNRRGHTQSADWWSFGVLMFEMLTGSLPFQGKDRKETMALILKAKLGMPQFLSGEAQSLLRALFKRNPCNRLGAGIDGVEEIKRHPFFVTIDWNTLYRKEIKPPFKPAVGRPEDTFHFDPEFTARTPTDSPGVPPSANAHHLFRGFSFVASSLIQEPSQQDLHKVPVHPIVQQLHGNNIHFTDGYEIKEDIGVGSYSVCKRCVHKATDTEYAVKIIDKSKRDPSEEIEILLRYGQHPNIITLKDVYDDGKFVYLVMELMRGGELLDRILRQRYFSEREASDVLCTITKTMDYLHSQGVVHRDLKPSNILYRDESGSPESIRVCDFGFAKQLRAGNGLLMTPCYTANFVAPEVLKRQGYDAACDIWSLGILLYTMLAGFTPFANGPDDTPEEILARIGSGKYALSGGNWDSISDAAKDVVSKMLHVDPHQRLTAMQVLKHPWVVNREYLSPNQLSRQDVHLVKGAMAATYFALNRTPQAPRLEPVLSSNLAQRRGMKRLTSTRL
CDK1/cyclinB, sequence (P06493 whole entry, species assumed): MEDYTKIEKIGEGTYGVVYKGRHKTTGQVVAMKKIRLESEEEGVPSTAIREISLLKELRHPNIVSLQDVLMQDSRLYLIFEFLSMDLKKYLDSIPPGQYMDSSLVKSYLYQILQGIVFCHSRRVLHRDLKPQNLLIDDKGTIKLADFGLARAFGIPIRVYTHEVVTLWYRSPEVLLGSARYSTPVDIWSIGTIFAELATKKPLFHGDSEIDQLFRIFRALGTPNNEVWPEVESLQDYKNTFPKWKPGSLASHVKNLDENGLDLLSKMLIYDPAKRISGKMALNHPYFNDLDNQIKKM
CDK1/cyclinB, sequence (P14635 whole entry partner, species assumed): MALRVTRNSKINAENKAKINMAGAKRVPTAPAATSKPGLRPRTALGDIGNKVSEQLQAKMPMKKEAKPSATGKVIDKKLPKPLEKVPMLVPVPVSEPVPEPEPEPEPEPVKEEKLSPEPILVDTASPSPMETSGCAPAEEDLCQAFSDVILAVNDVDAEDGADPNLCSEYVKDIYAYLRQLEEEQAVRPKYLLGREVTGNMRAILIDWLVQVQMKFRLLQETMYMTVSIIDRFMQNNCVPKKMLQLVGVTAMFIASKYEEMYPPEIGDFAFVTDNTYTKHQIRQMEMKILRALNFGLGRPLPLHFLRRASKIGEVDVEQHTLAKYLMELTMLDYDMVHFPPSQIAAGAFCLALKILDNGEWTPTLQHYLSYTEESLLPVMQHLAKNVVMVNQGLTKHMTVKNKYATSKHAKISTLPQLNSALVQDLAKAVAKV

With CC(C)Nc1cc(-c2c[nH]c(C(=O)N[C@H](CO)c3cccc(Cl)c3)c2)c(Cl)cn1 [BVD-523] the EC50 ([1]; Homo sapiens, human whole blood (HWB), read-out: EC50 based on the ex vivo whole blood assay) was about 0.2 µg/mL (≈ 0.462 µM), the inhibition at 10 µM ([1]; Homo sapiens, read-out: maximum inhibition of RSK phosphorylation) was 75.8 ± 2.7% and the IC50 ([1]; Homo sapiens, whole blood from healthy volunteers, read-out: mean IC50, PMA-stimulated RSK phosphorylation) was 461 ± 20 nM. For the same molecule, the “EC50 based on the ex vivo whole blood assay” value ([1]; human whole blood (HWB)) was 200 ng/mL (≈ 0.462 µM), the “tumor growth inhibition (TGI)” value (A375 xenografts; 50 mg/kg BID p.o.) was 71% and the “tumor growth inhibition (TGI)” value (A375 xenografts; 100 mg/kg BID p.o.) was 99%. The Ki (RSK3) was 450 nM, the T/C (Colo205 xenografts; 25 mg/kg BID) was 25.2% and the “mean tumor regression T/Ti” value (Colo205 xenografts; 50 mg/kg BID) was −48.2%. The “mean tumor regression T/Ti” value (Colo205 xenografts; 75 mg/kg BID) was −77.2%, the “mean tumor regression T/Ti” value (Colo205 xenografts; 100 mg/kg BID) was −92.3% and the “Anemia, Any grade” value ([2]; human) was 5 (19) n (%). For the same molecule, the “Anemia, Grade 1 or 2” value ([2]; human) was 3 (11) n (%), the “Anemia, Grade 3” value ([2]; human) was 2^ (7) n (%) and the “Anorexia, Any grade” value ([2]; human) was 6 (22) n (%). For the same molecule, the “Anorexia, Grade 1 or 2” value ([2]; human) was 6 (22) n (%), the “Anorexia, Grade 3” value ([2]; human) was 0 n (%) and the “Blurry/dimmed vision, Any grade” value ([2]; human) was 3 (11) n (%). The “Blurry/dimmed vision, Grade 1 or 2” value ([2]; human) was 3 (11) n (%), the “Blurry/dimmed vision, Grade 3” value ([2]; human) was 0 n (%) and the “Constipation, Any grade” value ([2]; human) was 3 (11) n (%). The “Constipation, Grade 1 or 2” value ([2]; human) was 3 (11) n (%), the “Constipation, Grade 3” value ([2]; human) was 0 n (%) and the “Dehydration, Any grade” value ([2]; human) was 5 (19) n (%). The “Dehydration, Grade 1 or 2” value ([2]; human) was 3 (11) n (%), the “Dehydration, Grade 3” value ([2]; human) was 2^ (7) n (%) and the “Diarrhea, Any grade” value ([2]; human) was 16 (59) n (%). For the same molecule, the “Diarrhea, Grade 1 or 2” value ([2]; human) was 12 (44) n (%), the “Diarrhea, Grade 3” value ([2]; human) was 4^ (15) n (%) and the “Fatigue, Any grade” value ([2]; human) was 17 (63) n (%). The “Fatigue, Grade 1 or 2” value ([2]; human) was 16 (59) n (%), the “Fatigue, Grade 3” value ([2]; human) was 1^ (4) n (%) and the “Fever, Any grade” value ([2]; human) was 3 (11) n (%). For the same molecule, the “Fever, Grade 1 or 2” value ([2]; human) was 3 (11) n (%), the “Fever, Grade 3” value ([2]; human) was 0 n (%) and the “Grade 3 treatment-related diarrhea” value ([2]; human) was 15%. For the same molecule, the “Grade 3 treatment-related increased liver function tests” value ([2]; human) was 11%, the “Increased LFTs (ALT and AST), Any grade” value ([2]; human) was 4 (14) n (%) and the “Increased LFTs (ALT and AST), Grade 1 or 2” value ([2]; human) was 1 (4) n (%). The “Increased LFTs (ALT and AST), Grade 3” value ([2]; human) was 3^ (11) n (%), the “Increased creatinine, Any grade” value ([2]; human) was 5 (19) n (%) and the “Increased creatinine, Grade 1 or 2” value ([2]; human) was 4 (15) n (%). For the same molecule, the “Increased creatinine, Grade 3” value ([2]; human) was 1^ (4) n (%), the MTD ([2]; human) was 600 mg BID and the “Nausea, Any grade” value ([2]; human) was 14 (52) n (%). For the same molecule, the “Nausea, Grade 1 or 2” value ([2]; human) was 14 (52) n (%), the “Nausea, Grade 3” value ([2]; human) was 0 n (%) and the “Peripheral edema, Any grade” value ([2]; human) was 4 (15) n (%). For the same molecule, the “Peripheral edema, Grade 1 or 2” value ([2]; human) was 4 (15) n (%), the “Peripheral edema, Grade 3” value ([2]; human) was 0 n (%) and the “Pruritus, Any grade” value ([2]; human) was 6 (22) n (%). For the same molecule, the “Pruritus, Grade 1 or 2” value ([2]; human) was 6 (22) n (%), the “Pruritus, Grade 3” value ([2]; human) was 0 n (%) and the RP2D ([2]; human) was 600 mg BID. The “Rash, Any grade” value ([2]; human) was 20 (74) n (%), the “Rash, Grade 1 or 2” value ([2]; human) was 18 (67) n (%) and the “Rash, Grade 3” value ([2]; human) was 2^b (7) n (%). For the same molecule, the “Vomiting, Any grade” value ([2]; human) was 8 (30) n (%), the “Vomiting, Grade 1 or 2” value ([2]; human) was 7 (26) n (%) and the “Vomiting, Grade 3” value ([2]; human) was 1^ (4) n (%). The “dose reductions resulting from AEs” value ([2]; human) was 3 patients, the “patients with Grade 4 or 5 AEs possibly or definitely related” value ([2]; human) was “^aNo patients experienced Grade 4 or 5 AEs that were possibly or definitely related to BVD-523 treatment” and the “patients with treatment-related AEs of any grade” value ([2]; human) was 26 of 27. For the same molecule, the “patients with treatment-related Grade 3 events” value ([2]; human) was 13 of 27, the “related central serous retinopathy events” value ([2]; human) was “^cOne Grade 1 event of related central serous retinopathy” and the “total serious AEs (SAEs)” value ([2]; human) was 28. For the same molecule, the treatment-related diarrhea ([2]; human) was 52%, the treatment-related fatigue ([2]; human) was 59% and the treatment-related nausea ([2]; human) was 52%. The “treatment-related rash (predominately acneiform)” value ([2]; human) was 70%, the “patients with serious AEs (SAEs)” value [2] was “Fourteen” and the Ki (CDK1/cyclinB) was 70 nM. For the same molecule, the Ki (ERK1; Ki against recombinant ERK1, tight-binding) was under 0.3 nM, the Ki (ERK1; Ki, ERK1) was at most 0.3 nM and the “time of maximal ERK1/2 phosphorylation post-dose” value [3] was 8 h. For the same molecule, the “time of return of pERK1/2 to pre-dose levels” value [3] was at most 24 hours and the Ki (ROCKII) was 270 nM.
